Consider 44 compounds from US7645881B2, “Methods for treating hepatitis C” (PTC Therapeutics, Inc., priority 2004, dated 2010).

The subject of data set [1] is wild-type poliovirus (WT-PV). The class given is cell-based. To be noted: HeLa cells, MOI 0.1, compound for one day, decrease of cytopathic effect. For orientation: Damage to the host cells serves as the signal in cytopathic effect assays.
For data set [2], the system named is HCV replicon. The data set can be described thus: microbe, parasite or virus in culture. The class given is cell-based. To be noted: Hepatitis C virus, 48 h, read-out: Replicon IC50s μM. (In antiviral work, replicon cells carry a viral genome segment that copies itself.)

In general, melting point refers to the temperature, or range, at which the solid turns liquid. Compound `CCc1c(C)nc2sc(NC(=O)C(C)(C)C)c(C#N)c2c1C` [Compound 50] yielded a melting point of 164 to 166 °C. Moreover, in data set [1], the “WTPV CPE (1.2 μM)” value is 0, the “WTPV CPE (11.1 μM)” value is recorded as 1 (A “1” in the WT-PV CPE columns indicates that the CPE (cytopathic effect) is decreased by 20-50%.) and the “WTPV CPE (100 μM)” value is listed as 3 (A “3” in the WT-PV CPE columns indicates that the CPE is decreased by 75-100%.). Moreover, in data set [2], the IC50 was over 2 µM.

In the case of `CC(C)(C)NC(=O)c1sc2nc3c(c(-c4cccs4)c2c1N)CCCCC3` [Compound 48], the melting point was in the range of 184 to 185 °C. In data set [2], the IC50 is over 2 µM.

Turning to `Nc1c(C(=O)Nc2ccc(C(F)(F)F)cc2)sc2nc3c(cc12)CCCCC3` [Compound 29], in data set [1], the “WTPV CPE (1.2 μM)” value was 0, the “WTPV CPE (11.1 μM)” value is listed as 1 (A “1” in the WT-PV CPE columns indicates that the CPE (cytopathic effect) is decreased by 20-50%.) and the “WTPV CPE (100 μM)” value is 2 (A “2” in the WT-PV CPE columns indicates that the CPE is decreased by 50-75%.). Further, the IC50 in data set [2] was over 2 µM.

For `Cc1nc2sc(C(=O)OC(C)(C)C)c(N)c2c(C)c1-c1ccccc1` [Compound 55], the melting point lay in the range of 212 to 213 °C. In addition, the IC50 in data set [2] was over 2 µM.

Turning to `Cc1nc2sc(-c3ncc(-c4ccccc4)o3)c(N)c2c(C)c1C` [Compound 26], the melting point was 284 to 285 °C. For the same compound, the IC50 in data set [2] was in the range of 0.5 to 2 µM.

As to `Cc1nc2sc(C(=O)OC(C)(C)C)c(N)c2c(C)c1OCCN1CCOCC1` [Compound 67, t-butyl 3-amino-4,6-dimethyl-5-(2-morpholin-4-yl-ethoxy)-thieno[2,3-b]pyridine-2-carboxylate], the melting point is 102 to 104 °C. In addition, the IC50 in data set [2] was over 2 µM.

For `N#Cc1cccc(-c2sc3nc4c(c(-c5cccs5)c3c2C#N)CCCCC4)c1` [Compound 61], the melting point lay in the range of 159 to 162 °C. Also, in data set [2], the IC50 is over 2 µM.

`N#Cc1c(NC(=O)c2cccc(C(F)(F)F)c2)sc2nc3c(c(-c4cccs4)c12)CCCCC3` [Compound 58, N-(3-cyano-4-thiophen-2-yl-6,7,8,9-tetrahydro-5H-1-thia-10-aza-cyclohepta[f]inden-2-yl)-3-trifluoromethyl-benzamide]: the melting point was in the range of 226.9 to 227.1 °C. The IC50 in data set [2] was over 2 µM.

As for `CCc1c(C)nc2sc(C(=O)OC(C)(C)C)c(N)c2c1C` [Compound 3, tert-Butyl 3-amino-5-ethyl-4,6-dimethylthieno[2,3-B]pyridine-2-carboxylate], the melting point was in the range of 135 to 136 °C. Also, the IC50 in data set [2] was 0.5 to 2 µM.

As to `Cc1nc2sc(-c3nnc(-c4ccccc4Cl)o3)c(N)c2c(C)c1C` [Compound 15], the melting point lay within 284 to 286 °C. Also, the IC50 in data set [2] lay in the range of 0.5 to 2 µM.

For the compound `Cc1nc2sc(-c3nc(-c4cccnc4)no3)c(N)c2c(C)c1C` [Compound 25], the melting point is 278 to 280 °C. Besides, the IC50 in data set [2] was in the range of 0.5 to 2 µM.

Regarding `CCc1c(C)nc2sc(S(C)(=O)=O)c(C#N)c2c1C` [Compound 54], the melting point lay in the range of 219 to 220 °C. Besides, in data set [2], the IC50 was over 2 µM.

With `CCc1c(C)nc2sc(C(=O)SC(C)(C)C)cc2c1C` [Compound 65], the melting point fell in the range of 109.6 to 110.2 °C. Moreover, in data set [2], the IC50 is 0.5 to 2 µM.

On to `CN1CCN(C(=O)c2sc3nc4c(c(C(F)(F)F)c3c2N)CCCCC4)CC1` [Compound 5], for which, in data set [1], the “WTPV CPE (1.2 μM)” value turned out to be 0, the “WTPV CPE (11.1 μM)” value is on record as 1 (A “1” in the WT-PV CPE columns indicates that the CPE (cytopathic effect) is decreased by 20-50%.) and the “WTPV CPE (100 μM)” value was 2 (A “2” in the WT-PV CPE columns indicates that the CPE is decreased by 50-75%.). Also, the IC50 in data set [2] was over 2 µM.

Take `Cc1nc2sc(-c3nc(-c4ccccc4)no3)c(N)c2c(C)c1C` [Compound 24, 4,5,6-trimethyl-2-(3-phenyl-[1,2,4]oxadiazol-5-yl)-thieno[2,3-b]pyridin-3-ylamine]: the melting point was 276 to 278 °C. Besides, the IC50 in data set [2] is under 0.5 µM.

With `Cc1nc2sc(-c3nnc(-c4ccccc4F)o3)c(N)c2c(C)c1C` [Compound 14], the melting point fell in the range of 287 to 288 °C. For the same compound, the IC50 in data set [2] was under 0.5 µM.

`CCc1c(C)nc2sc(C(=O)OC(C)(C)C)c(-c3cccc(Cl)c3)c2c1C` [Compound 43]: the melting point is 152.1 to 152.6 °C. Besides, the IC50 in data set [2] is over 2 µM.

Regarding `N#Cc1c(-c2ccc3c(c2)OCO3)sc2nc3c(c(-c4cccs4)c12)CCCCC3` [Compound 62], the melting point fell in the range of 210 to 211 °C. Further, in data set [2], the IC50 was over 2 µM.

With `CCc1c(C)nc2sc(NC(=O)C3CCCC3)c(C#N)c2c1C` [Compound 49, cyclopentanecarboxylic acid (3-cyano-5-ethyl-4,6-dimethyl-thieno[2,3-b]pyridin-2-yl)amide], the melting point fell in the range of 228 to 230 °C. Moreover, the IC50 in data set [2] is over 2 µM.

For `CCc1c(C)nc2sc(-c3nnc(-c4ccccc4)o3)c(N)c2c1C` [Compound 6, 5-ethyl-4,6-dimethyl-2-(5-phenyl-[1,3,4]oxadiazol-2-yl)-thieno[2,3-b]pyridin-3-yl amine], the melting point lay in the range of 306 to 307 °C. The IC50 in data set [2] was in the range of 0.5 to 2 µM.

The compound `Nc1c(C(=O)N2CCOCC2)sc2nc3c(cc12)CCCCC3` [Compound 1] registered a melting point of 203 to 204 °C. Also, the IC50 in data set [2] was over 2 µM.

With `CCOC(=O)c1sc2nc3c(c(-c4ccco4)c2c1N)CCC3` [Compound 46], the melting point is 157.6 to 157.7 °C. The IC50 in data set [2] was over 2 µM.

In turn, `CCc1c(C)nc2sc(C(=O)OC(C)(C)C)c(-c3ccc(Cl)cc3)c2c1C` [Compound 42] showed a melting point of 117 to 118 °C. Moreover, the IC50 in data set [2] was over 2 µM.

As to `CN1CCN(C(=O)c2sc3nc4c(c(-c5cccs5)c3c2N)CCCCC4)CC1` [Compound 47], the melting point was in the range of 115 to 118 °C. For the same compound, the IC50 in data set [2] was over 2 µM.

For the compound `COc1ccc(-c2sc3nc4c(c(-c5cccs5)c3c2C#N)CCCCC4)cc1` [Compound 63, 2-(4-methoxyphenyl)-4-thiophen-2-yl-6,7,8,9-tetrahydro-5H-1-thia-10-aza-cyclohepta[f]indene-3-carbonitrile], the melting point lay within 179.2 to 179.6 °C. Also, the IC50 in data set [2] was over 2 µM.

`CCc1c(C)nc2sc(C(=O)OC(C)(C)C)c(-c3ccoc3)c2c1C` [Compound 40]: the melting point lay in the range of 111 to 111.5 °C. For the same compound, in data set [2], the IC50 is over 2 µM.

In turn, `COc1ccccc1-c1noc(-c2sc3nc(C)c(C)c(C)c3c2N)n1` [Compound 20] displayed a melting point of 244 to 245 °C. In addition, the IC50 in data set [2] lay within 0.5 to 2 µM.

Take `CC(C)(C)OC(=O)c1sc2nc3c(c(-c4cccs4)c2c1N)CCCCC3` [Compound 45, tert-butyl 3-amino-4-thiophen-2-yl-6,7,8,9-tetrahydro-5H-1-thia-10-aza-cyclohepta[f]indene-2-carboxylate]: the melting point lay within 202.9 to 203.1 °C. In data set [2], the IC50 was over 2 µM.

For `Cc1ccccc1-c1nnc(-c2sc3nc(C)c(C)c(C)c3c2N)o1` [Compound 13], the melting point lay within 261 to 262 °C. In addition, in data set [2], the IC50 was under 0.5 µM.

Regarding `Cc1nc2sc(C(=O)OC(C)(C)C)c(N)c2c(C)c1OCCN1CCN(C)CC1` [Compound 71], the melting point fell in the range of 155.4 to 155.5 °C. Further, the IC50 in data set [2] was over 2 µM.

`N#Cc1c(Br)sc2nc3c(c(-c4cccs4)c12)CCCCC3` [Compound 60] had a melting point of 196.4 to 196.7 °C. In addition, the IC50 in data set [2] is over 2 µM.

`Cc1cccc(-c2nnc(-c3sc4nc(C)c(C)c(C)c4c3N)o2)c1` [Compound 7] showed a melting point of 268 to 270 °C. Further, the IC50 in data set [2] was in the range of 0.5 to 2 µM.

On to `Cc1nc2sc(-c3nc(-c4cccs4)no3)c(N)c2c(C)c1C` [Compound 19], for which the melting point is 281 to 282 °C. In addition, in data set [2], the IC50 was under 0.5 µM.

Compound `CCCCNc1cc(C)c2c(N)c(C(N)=O)sc2n1` [Compound 17] yielded a melting point of 169 to 170 °C. The IC50 in data set [2] lay within 0.5 to 2 µM.

Compound `Cc1nc2sc(-c3nnc(-c4cccc(F)c4)o3)c(N)c2c(C)c1C` [Compound 8] yielded a melting point of 300 to 302 °C. In addition, the IC50 in data set [2] was 0.5 to 2 µM.

Turning to `CCc1c(C)nc2sc(C(=O)OC(C)(C)C)c(-c3ccc4c(c3)OCO4)c2c1C` [Compound 39], the melting point was 151 to 152 °C. In data set [2], the IC50 is over 2 µM.

On to `N#Cc1c(C(=O)Nc2ccccc2)sc2nc3c(c(-c4cccs4)c12)CCCCC3` [Compound 57], for which the melting point fell in the range of 215.3 to 215.7 °C. Further, in data set [2], the IC50 is over 2 µM.

Compound `CCc1c(C)nc2sc(NC(=O)C(C)C)c(C#N)c2c1C` [Compound 53] registered a melting point of 189 to 190 °C. In data set [2], the IC50 was over 2 µM.

On to `Cc1nc2sc(-c3nnc(-c4ccc(Cl)cc4)o3)c(N)c2c(C)c1C` [Compound 12], for which the melting point is 331 to 332 °C. The IC50 in data set [2] is over 2 µM.

Regarding `Cc1nc2sc(-c3nnc(-c4ccccn4)o3)c(N)c2c(C)c1C` [Compound 16], the melting point is 306 to 308 °C. Also, the IC50 in data set [2] is under 0.5 µM.

As for `Cc1nc2sc(-c3noc(-c4cccs4)n3)c(N)c2c(C)c1C` [Compound 22], the melting point lay within 260 to 265 °C. In addition, the IC50 in data set [2] is under 0.5 µM.

As for `Cc1nc2sc(-c3noc(-c4ccccc4)n3)c(N)c2c(C)c1C` [Compound 21], the melting point lay within 248 to 250 °C. In data set [2], the IC50 was under 0.5 µM.

For the compound `Cc1nc2sc(-c3nnc(-c4ccc(F)cc4)o3)c(N)c2c(C)c1C` [Compound 10], the melting point is 320 to 322 °C. Also, the IC50 in data set [2] lay within 0.5 to 2 µM.

On to `COc1ccccc1-c1nnc(-c2sc3nc(C)c(C)c(C)c3c2N)o1` [Compound 23], for which the melting point lay within 238 to 240 °C. Further, the IC50 in data set [2] fell in the range of 0.5 to 2 µM.
